In ChEMBL document CHEMBL1143436 (Bioorg Med Chem Lett, 2008):
Calls of active or inactive are those of the source. The calls are words filed in the database; no cut-off is given here.

Assays:
[1] = target: T1, Neurotensin receptor type 1 (Homo sapiens, UniProt P30989); test: Antagonist activity at human NTS1 receptor expressed in CHOK1 cells assessed as inhibition of intracellular calcium elevation pretreated 30 mins before with SR-48692 by FLIPR assay; assay type: functional, cell-based, CHO-K1
T1 sequence (P30989 whole entry): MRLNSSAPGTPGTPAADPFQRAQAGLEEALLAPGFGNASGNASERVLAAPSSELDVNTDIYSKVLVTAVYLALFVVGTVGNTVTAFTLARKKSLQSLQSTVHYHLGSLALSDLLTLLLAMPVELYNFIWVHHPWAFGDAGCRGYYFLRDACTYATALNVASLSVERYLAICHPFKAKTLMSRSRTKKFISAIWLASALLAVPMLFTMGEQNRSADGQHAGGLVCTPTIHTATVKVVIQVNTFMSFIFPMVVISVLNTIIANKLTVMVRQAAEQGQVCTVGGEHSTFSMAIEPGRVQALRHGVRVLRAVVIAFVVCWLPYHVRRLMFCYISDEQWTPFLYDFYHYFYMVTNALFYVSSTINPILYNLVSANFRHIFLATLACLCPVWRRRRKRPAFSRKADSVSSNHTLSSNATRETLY

[2] = target: T1, Neurotensin receptor type 1; test: Displacement of [3H]neurotensin from human NTS1 receptor expressed in CHOK1 cells after 60 mins by beta plate liquid scintillation counter; assay type: cell-based, CHO-K1

CC(C)C[C@@H](NC(=O)Cn1ccc2cc(NS(=O)(=O)c3cccc4cccnc34)ccc21)C(=O)O
IC50 [1]: 3.76 nM
Ki [2]: 545 nM

CC(C)CC(NC(=O)OCC1c2ccccc2-c2ccccc21)C(=O)O (centres undefined)
IC50 [1]: 3.79 nM
Activity ([2]; CHO-K1): inactive
